The target of this experiment is human, KCNT1 (Homo sapiens (Human), UniProt Q5JUK3). The experiment can be described thus: FLIPR Tl/K Flux Assay. Format: cell-based. Particulars: HEK293 cells stably expressing human KCNT1; Tl+ flux stimulated with EC80 of agonist Loxapine. A digest of the protocol:
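Inhibition values come from a Hill-equation fit of % inhibition versus log concentration, using normalized fluorescence (Fmax/Fmin) over a 160 s read. The read followed stimulation with Tl+ plus EC80 agonist loxapine after 30 min compound pre-incubation at 25 °C. Cells were KCNT1-expressing HEK293, dye-loaded 1 h in pH 7.4 HEPES/HBSS with 5 mM probenecid.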
Sequence of human, KCNT1 (Q5JUK3 whole entry): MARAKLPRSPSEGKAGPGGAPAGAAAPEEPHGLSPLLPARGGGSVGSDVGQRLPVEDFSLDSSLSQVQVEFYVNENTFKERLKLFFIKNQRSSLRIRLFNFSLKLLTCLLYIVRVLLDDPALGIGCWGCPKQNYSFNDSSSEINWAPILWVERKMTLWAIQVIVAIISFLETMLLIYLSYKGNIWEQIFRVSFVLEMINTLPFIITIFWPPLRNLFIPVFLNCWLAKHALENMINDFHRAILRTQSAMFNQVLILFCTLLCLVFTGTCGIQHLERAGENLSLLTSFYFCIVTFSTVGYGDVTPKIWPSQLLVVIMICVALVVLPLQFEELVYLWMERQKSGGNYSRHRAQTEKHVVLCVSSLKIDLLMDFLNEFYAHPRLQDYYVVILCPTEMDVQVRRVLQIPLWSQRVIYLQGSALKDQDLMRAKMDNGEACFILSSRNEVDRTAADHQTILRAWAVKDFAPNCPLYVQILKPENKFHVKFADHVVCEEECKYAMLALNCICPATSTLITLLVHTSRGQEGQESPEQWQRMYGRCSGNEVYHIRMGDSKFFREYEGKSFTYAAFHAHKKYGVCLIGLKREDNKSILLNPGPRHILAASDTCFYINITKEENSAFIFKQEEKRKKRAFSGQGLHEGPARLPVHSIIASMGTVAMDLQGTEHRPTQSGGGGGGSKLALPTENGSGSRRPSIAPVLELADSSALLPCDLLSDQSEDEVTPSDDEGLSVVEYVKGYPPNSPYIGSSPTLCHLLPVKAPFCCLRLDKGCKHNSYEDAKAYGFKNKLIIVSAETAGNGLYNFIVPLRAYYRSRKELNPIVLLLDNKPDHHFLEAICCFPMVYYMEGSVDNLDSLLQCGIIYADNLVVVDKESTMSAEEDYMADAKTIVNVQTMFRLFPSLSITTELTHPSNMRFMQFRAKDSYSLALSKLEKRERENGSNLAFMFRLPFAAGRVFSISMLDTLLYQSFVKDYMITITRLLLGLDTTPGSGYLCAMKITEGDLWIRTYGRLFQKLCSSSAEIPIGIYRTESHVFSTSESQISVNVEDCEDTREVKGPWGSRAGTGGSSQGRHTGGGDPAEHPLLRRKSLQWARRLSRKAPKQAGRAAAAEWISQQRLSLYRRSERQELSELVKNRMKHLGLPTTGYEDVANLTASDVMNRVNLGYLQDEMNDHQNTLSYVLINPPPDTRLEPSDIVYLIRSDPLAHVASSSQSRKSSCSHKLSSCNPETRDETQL
As usually defined, the IC50 is the concentration needed to halve the response being measured. Low readings indicate greater potency in that assay, high ones weaker potency in that assay. As for `COc1cc(-c2cc3n(n2)CC[C@@H]3NC(=O)c2cc3cccnn3c2)ccn1` [Compound I-292a, (S)-N-(2-(2-Methoxypyridin-4-yl)-5,6-dihydro-4H-pyrrolo[1,2-b]pyrazol-4-yl)pyrrolo[1,2-b]pyridazine-6-carboxamide], the IC50 is below 250 nM.

For the compound `O=C(N[C@H]1CCn2nc(-c3cc(C(F)(F)F)ncc3F)cc21)C12CC(F)(C1)C2` [Compound I-552a, (S)-3-Fluoro-N-(2-(5-fluoro-2-(trifluoromethyl)pyridin-4-yl)-5,6-dihydro-4H-pyrrolo[1,2-b]pyrazol-4-yl)bicyclo[1.1.1]pentane-1-carboxamide], the IC50 is below 250 nM.

With `O=C(N[C@@H]1CCCc2nc(-c3ccnc(C4CC4)c3)oc21)c1cncc(C(F)(F)F)n1` [Compound I-509b], the IC50 was above 1000 nM.

Consider `Cn1nc(C(F)(F)F)cc1C(=O)N[C@H]1CCCn2nc(-c3ccnc(C4CC4)c3)nc21` [Compound I-201a, (S)—N-(2-(2-Cyclopropylpyridin-4-yl)-5,6,7,8-tetrahydro-[1,2,4]triazolo[1,5-a]pyridin-8-yl)-1-methyl-3-(trifluoromethyl)-1H-pyrazole-5-carboxamide], for which the half-inhibitory concentration (IC50) was below 250 nM.

The compound `Cn1nc(C(F)(F)F)cc1C(=O)NC1CCCc2nn(-c3ccc(=O)[nH]c3)cc21` (racemic) [Compound I-33, (rac)-1-Methyl-N-(2-(6-oxo-1,6-dihydropyridin-3-yl)-4,5,6,7-tetrahydro-2H-indazol-4-yl)-3-(trifluoromethyl)-1H-pyrazole-5-carboxamide] gave an IC50 above 1000 nM.

`O=C(N[C@H]1CCCc2oc(-c3cc(C(F)(F)F)ncc3F)nc21)c1cccc(C(F)(F)F)c1` [Compound I-554a, (S)—N-(2-(5-Fluoro-2-(trifluoromethyl)pyridin-4-yl)-4,5,6,7-tetrahydrobenzo[d]oxazol-4-yl)-3-(trifluoromethyl)benzamide] yielded an IC50 below 250 nM.

For the compound `O=C(N[C@H]1CCCc2cnc(-c3ccnc(C(F)(F)F)c3)cc21)c1cncc(C(F)(F)F)n1` (single isomer, unassigned) [I-270*], the IC50 is above 1000 nM.

In the case of `Cc1nn(C(F)(F)F)cc1C(=O)N[C@H]1CCCc2oc(-c3ccnc(C(F)(F)F)c3)nc21` [Compound I-557a, (S)-3-Methyl-1-(trifluoromethyl)-N-(2-(2-(trifluoromethyl)pyridin-4-yl)-4,5,6,7-tetrahydrobenzo[d]oxazol-4-yl)-1H-pyrazole-4-carboxamide], the IC50 is below 250 nM.

`Cn1nc(C(F)(F)F)cc1C(=O)N[C@H]1CCc2nn(-c3cc(C4CC4)ncc3F)cc21` [Compound I-190a, (S)-N-(2-(2-Cyclopropyl-5-fluoropyridin-4-yl)-2,4,5,6-tetrahydrocyclopenta[c]pyrazol-4-yl)-1-methyl-3-(trifluoromethyl)-1H-pyrazole-5-carboxamide] came in with an IC50 below 250 nM.

`COc1cc(-c2nc3c(o2)CCC[C@@H]3NC(=O)c2cc3cccnn3c2)ccn1` [Compound I-293a, (S)-N-(2-(2-Methoxypyridin-4-yl)-4,5,6,7-tetrahydrobenzo[d]oxazol-4-yl)pyrrolo[1,2-b]pyridazine-6-carboxamide] returned an IC50 of 250 to 500 nM.

`Cn1nc(C(F)(F)F)cc1C(=O)NC1CCCc2nn(-c3ccnc(C(F)(F)F)c3)cc21` (racemic) [Compound I-4, (rac)-1-Methyl-3-(trifluoromethyl)-N-(2-(2-(trifluoromethyl)pyridin-4-yl)-4,5,6,7-tetrahydro-2H-indazol-4-yl)-1H-pyrazole-5-carboxamide]: the IC50 was below 250 nM.

`O=C(N[C@H]1CCCc2oc(-c3ccnc(C(F)(F)F)c3)nc21)c1cc2cccnn2c1` [Compound I-296a, (S)-N-(2-(2-(Trifluoromethyl)pyridin-4-yl)-4,5,6,7-tetrahydrobenzo[d]oxazol-4-yl)pyrrolo[1,2-b]pyridazine-6-carboxamide] gave an IC50 below 250 nM.

The values above are taken from US20250313548A1 (Actio Biosciences, Inc., priority 2023, published 2025).
